The values below come from patent US10479780B2, “Aminopyrazole derivatives” (Chugai Seiyaku Kabushiki Kaisha, priority 2015, dated 2019).

Common to all, as to format: biochemical
Experiment [1] concerns the target T1, human Yes1 enzyme (Homo sapiens, UniProt P07947).
T1 construct: made in house
As to the kind of experiment: Yes1 enzyme inhibitory activity (time-resolved fluorometry, biotinylated peptide phosphorylation). The settings on record: read-out: YES_IC50. In short, it runs like this:
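Inhibition was expressed against a compound-free control to give IC50, using TR-FRET read-out (Eu-cryptate anti-pTyr antibody, streptavidin-XL665).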

Experiment [2] deals with T2, human Src enzyme (Homo sapiens, UniProt P12931).
T2 construct: purchased Carna Biosciences, Inc. 08-173
T2 sequence (P12931 whole entry): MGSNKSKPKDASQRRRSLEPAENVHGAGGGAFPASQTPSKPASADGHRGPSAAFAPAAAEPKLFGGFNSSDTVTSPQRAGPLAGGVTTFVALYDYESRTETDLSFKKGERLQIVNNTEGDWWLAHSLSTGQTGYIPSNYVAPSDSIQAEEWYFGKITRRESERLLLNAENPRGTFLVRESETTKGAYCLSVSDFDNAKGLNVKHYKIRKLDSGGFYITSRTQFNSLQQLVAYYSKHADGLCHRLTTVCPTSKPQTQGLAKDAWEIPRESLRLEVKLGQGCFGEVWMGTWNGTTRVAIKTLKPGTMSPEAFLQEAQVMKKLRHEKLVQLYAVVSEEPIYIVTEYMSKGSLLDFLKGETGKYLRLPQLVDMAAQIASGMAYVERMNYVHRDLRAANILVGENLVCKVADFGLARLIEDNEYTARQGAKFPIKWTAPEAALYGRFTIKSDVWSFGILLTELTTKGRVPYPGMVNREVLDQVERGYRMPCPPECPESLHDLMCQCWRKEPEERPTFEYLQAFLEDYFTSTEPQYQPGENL
As to the kind of experiment: Src enzyme inhibitory activity (time-resolved fluorometry, biotinylated peptide phosphorylation). The settings on record: read-out: SRC_IC50. In short, it runs like this: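 Compounds were tested for blocking tyrosine phosphorylation of a biotinylated peptide substrate by recombinant human Src. Phosphorylated product was quantified by time-resolved fluorometry using europium cryptate and XL665 conjugates, and IC50 was calculated against the compound-free control.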

Experiment [3] deals with T3, human Lck enzyme (Homo sapiens, UniProt P06239).
T3 construct: purchased Carna Biosciences, Inc. 08-170
T3 sequence (P06239 whole entry): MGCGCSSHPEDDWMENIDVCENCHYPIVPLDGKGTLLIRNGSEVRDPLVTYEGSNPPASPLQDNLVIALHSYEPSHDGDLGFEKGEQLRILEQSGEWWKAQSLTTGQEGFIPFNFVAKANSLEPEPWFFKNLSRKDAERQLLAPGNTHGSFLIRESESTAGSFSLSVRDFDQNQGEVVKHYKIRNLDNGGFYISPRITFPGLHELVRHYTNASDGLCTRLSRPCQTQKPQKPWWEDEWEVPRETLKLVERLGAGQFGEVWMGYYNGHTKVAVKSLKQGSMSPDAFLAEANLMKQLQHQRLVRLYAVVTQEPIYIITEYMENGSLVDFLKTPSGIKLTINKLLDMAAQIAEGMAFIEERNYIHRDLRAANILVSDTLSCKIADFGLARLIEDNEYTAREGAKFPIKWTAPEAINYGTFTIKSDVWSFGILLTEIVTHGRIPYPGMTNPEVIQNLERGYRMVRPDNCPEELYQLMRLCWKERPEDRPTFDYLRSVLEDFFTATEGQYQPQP
Kind of experiment: Lck enzyme inhibitory activity (time-resolved fluorometry, biotinylated peptide phosphorylation). As to conditions: read-out: LCK_IC50. In short, it runs like this:
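Readout pairs a europium cryptate-labelled anti-phosphotyrosine antibody with XL665-streptavidin, measured by time-resolved fluorescence. IC50 derived from percent inhibition against untreated controls.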

The mark [4] stands for this setting: biotinylated peptide phosphorylation.

Like-named read-outs stand apart in the source and are kept apart here.

T1 sequence (P07947 whole entry): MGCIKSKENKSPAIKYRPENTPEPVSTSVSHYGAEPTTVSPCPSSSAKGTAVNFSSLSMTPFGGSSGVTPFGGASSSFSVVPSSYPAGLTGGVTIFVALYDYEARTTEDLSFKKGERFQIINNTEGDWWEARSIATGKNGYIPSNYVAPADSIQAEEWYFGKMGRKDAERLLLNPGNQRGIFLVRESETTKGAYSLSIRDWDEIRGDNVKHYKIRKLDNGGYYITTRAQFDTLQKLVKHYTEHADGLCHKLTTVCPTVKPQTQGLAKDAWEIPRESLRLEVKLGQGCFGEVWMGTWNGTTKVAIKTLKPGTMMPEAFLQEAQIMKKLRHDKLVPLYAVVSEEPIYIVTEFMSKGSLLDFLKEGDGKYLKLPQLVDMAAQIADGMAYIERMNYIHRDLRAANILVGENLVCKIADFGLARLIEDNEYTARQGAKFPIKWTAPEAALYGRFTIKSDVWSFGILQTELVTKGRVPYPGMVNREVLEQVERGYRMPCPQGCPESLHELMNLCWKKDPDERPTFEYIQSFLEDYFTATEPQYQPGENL

Turning to `Cc1cc(Oc2ccccc2F)ccc1-n1ncc(C(=O)c2cc3cc(F)c(N4C(=O)[C@@H]5CCCN5C4=O)cc3[nH]2)c1N` [Example 5-1-448, (7aS)-2-[2-[5-amino-1-[4-(2-fluorophenoxy)-2-methylphenyl]pyrazole-4-carbonyl]-5-fluoro-1H-indol-6-yl]-5,6,7,7a-tetrahydropyrrolo [1,2-c]imidazole-1,3-dione], the IC50 in experiment [1] (setting [4]) worked out at 1.2 nM; in experiment [2] (setting [4]) it was 23 nM; in experiment [3] (setting [4]) it was 3.9 nM.

Regarding `Cc1cc(Oc2ccccc2F)ncc1-n1ncc(C(=O)c2cc3cc(OCC(F)F)c(C4CCN(S(=O)(=O)C5CC5)CC4)cc3[nH]2)c1N` [Example 4-17-022, [5-amino-1-[6-(2-fluorophenoxy)-4-methylpyridin-3-yl]pyrazol-4-yl]-[6-(1-cyclopropylsulfonylpiperidin-4-yl)-5-(2,2-difluoroethoxy)-1H-indol-2-yl]methanone], the IC50 in experiment [1] (setting [4]) is 1.3 nM; in experiment [2] (setting [4]), 14 nM; in experiment [3] (setting [4]) it was 8 nM.

Consider `Cc1ccccc1Oc1cc(C)c(-n2ncc(C(=O)c3cc4cc(F)c(NS(C)(=O)=O)cc4[nH]3)c2N)cn1` [Example 4-2-036, N-[2-[5-amino-1-[4-methyl-6-(2-methylphenoxy)pyridin-3-yl]pyrazole-4-carbonyl]-5-fluoro-1H-indol-6-yl]methanesulfonamide], for which the IC50 in experiment [1] (setting [4]) was 1.5 nM; in experiment [2] (setting [4]), 60 nM; in experiment [3] (setting [4]) it was 21 nM.

With `Cc1cc2cc(C(=O)c3cnn(-c4cnc(Oc5c(F)cccc5F)cc4C)c3N)[nH]c2cc1N1C(=O)N[C@@H](CO)C1=O` [Example 5-1-451, (5S)-3-[2-[5-amino-1-[6-(2,6-difluorophenoxy)-4-methylpyridin-3-yl]pyrazole-4-carbonyl]-5-methyl-1H-indol-6-yl]-5-(hydroxymethyl) imidazolidine-2,4-dione], the IC50 in experiment [1] (setting [4]) worked out at 0.89 nM; in experiment [2] (setting [4]), 41 nM; in experiment [3] (setting [4]), 4.6 nM.

In the case of `Cc1cc2cc(C(=O)c3cnn(-c4ccc(Oc5ccccc5F)cc4C)c3N)[nH]c2cc1NS(=O)(=O)CCCF` [Example 4-2-068, N-[2-[5-amino-1-[4-(2-fluorophenoxy)-2-methylphenyl]pyrazole-4-carbonyl]-5-methyl-1H-indol-6-yl]-3-fluoropropane-1-sulfonamide], the IC50 in experiment [1] (setting [4]) stood at 1.8 nM; in experiment [2] (setting [4]), 28 nM; in experiment [3] (setting [4]) it was 21 nM.

Take `Cc1cc2cc(C(=O)c3cnn(-c4cnc(Oc5c(F)cccc5F)cc4C)c3N)[nH]c2cc1NS(=O)(=O)N1CCOCC1` [Example 4-2-109, N-[2-[5-amino-1-[6-(2,6-difluorophenoxy)-4-methylpyridin-3-yl]pyrazole-4-carbonyl]-5-methyl-1H-indol-6-yl]morpholine-4-sulfonamide]: the results for the IC50 in experiment [1] (setting [4]), in experiment [2] (setting [4]) and in experiment [3] (setting [4]) were 1.9 nM, 210 nM and 45 nM, respectively.

For `Cc1cc(Oc2ccccc2F)cc(F)c1-n1ncc(C(=O)c2cc3cc(OCC(F)F)c(C4CCN(S(C)(=O)=O)CC4)cc3[nH]2)c1N` [Example 4-17-018, [5-amino-1-[2-fluoro-4-(2-fluorophenoxy)-6-methylphenyl]pyrazol-4-yl]-[5-(2,2-difluoroethoxy)-6-(1-methylsulfonylpiperidin-4-yl)-1H-indol-2-yl]methanone], the values for the IC50 in experiment [1] (setting [4]), in experiment [2] (setting [4]) and in experiment [3] (setting [4]) were 2.4 nM, 19 nM and 11 nM, respectively.

`Cc1cc(Oc2c(F)cccc2F)ncc1-n1ncc(C(=O)c2cc3cc(OC(F)F)c(C4CCNCC4)cc3[nH]2)c1N` [Example 4-4-001, (5-amino-1-(6-(2,6-difluorophenoxy)-4-methylpyridin-3-yl)-1H-pyrazol-4-yl)(5-(difluoromethoxy)-6-(piperidin-4-yl)-1H-indol-2-yl)methanone]: the IC50 in experiment [1] (setting [4]) turned out to be 6.3 nM; in experiment [2] (setting [4]), 21 nM; in experiment [3] (setting [4]), 8.2 nM.

Regarding `Cc1cc(Oc2cccc(Cl)c2)ncc1-n1ncc(C(=O)c2cc3cc(Cl)c(NS(C)(=O)=O)cc3[nH]2)c1N` [Example 4-2-091, N-[2-[5-amino-1-[6-(3-chlorophenoxy)-4-methylpyridin-3-yl]pyrazole-4-carbonyl]-5-chloro-1H-indol-6-yl]methanesulfonamide], the figures for the IC50 in experiment [1] (setting [4]), in experiment [2] (setting [4]) and in experiment [3] (setting [4]) were 9.7 nM, 350 nM and 140 nM, respectively.

Take `Cc1cc(Oc2ccccc2F)ccc1-n1ncc(C(=O)c2cc3cc(F)c(N4C(=O)NC5(CCCCC5)C4=O)cc3[nH]2)c1N` [Example 5-1-450, 3-[2-[5-amino-1-[4-(2-fluorophenoxy)-2-methylphenyl]pyrazole-4-carbonyl]-5-fluoro-1H-indol-6-yl]-1,3-diazaspiro[4.5]decane-2,4-dione]: the values for the IC50 in experiment [1] (setting [4]), in experiment [2] (setting [4]) and in experiment [3] (setting [4]) were 3 nM, 150 nM and 22 nM, respectively.

With `Cc1cc(-n2ncc(C(=O)c3cc4cc(OC5CCN(C(C)C)CC5)c(N5C(=O)NC(C)(C)C5=O)cc4[nH]3)c2N)ccc1Oc1ccccc1F` [Example 5-1-180, 3-[2-[5-amino-1-[4-(2-fluorophenoxy)-3-methylphenyl]pyrazole-4-carbonyl]-5-(1-propan-2-ylpiperidin-4-yl)oxy-1H-indol-6-yl]-5,5-dimethylimidazolidine-2,4-dione], the IC50 in experiment [1] turned out to be 0.35 nM; in experiment [2] it was 95 nM; in experiment [3], 6.3 nM.

On to `Cc1cc2cc(C(=O)c3cnn(-c4ccc(Oc5ccccc5F)c(C)c4F)c3N)[nH]c2cc1NS(C)(=O)=O` [Example 5-1-207, N-[2-[5-ainino-1-[2-fluoro-4-(2-fluorophenoxy)-3-methylphenyl]pyrazole-4-carbonyl]-5-methyl-1H-indol-6-yl]methanesulfonamide], for which the IC50 in experiment [1] worked out at 1.9 nM; in experiment [2] it was 350 nM; in experiment [3], 82 nM.

Take `Cc1cc(Oc2cc(F)ccc2F)cc(F)c1-n1ncc(C(=O)c2cc3cc(F)c(NS(C)(=O)=O)cc3[nH]2)c1N` [Example 4-7-007, N-[2-[5-amino-1-[4-(2,5-difluorophenoxy)-2-fluoro-6-methylphenyl]pyrazole-4-carbonyl]-5-fluoro-1H-indol-6-yl]methanesulfonamide]: the IC50 came to 2 nM in experiment [1] (setting [4]), 190 nM in experiment [2] (setting [4]) and 41 nM in experiment [3] (setting [4]).

With `CC(=O)N1CCC(c2cc3[nH]c(C(=O)c4cnn(-c5c(C)cc(Oc6ccccc6F)cc5F)c4N)cc3cc2C)CC1` [Example 5-1-138, 1-[4-[2-[5-amino-1-[2-fluoro-4-(2-fluorophenoxy)-6-methylphenyl]pyrazole-4-carbonyl]-5-methyl-1H-indol-6-yl]piperidin-1-yl] ethanone], the IC50 in experiment [1] was found to be 3.1 nM; in experiment [2] it was 68 nM; in experiment [3] it was 42 nM.

Consider `Cc1cc(Oc2c(F)cccc2F)ncc1-n1ncc(C(=O)c2cc3cc(OCC(F)F)c(NS(=O)(=O)c4cccc(C#N)n4)cc3[nH]2)c1N` [Example 5-1-574, N-[2-[5-amino-1-[6-(2,6-difluorophenoxy)-4-methylpyridin-3-yl]pyrazole-4-carbonyl]-5-(2,2-difluoroethoxy)-1H-indol-6-yl]-6-cyanopyridine-2-sulfonamide], for which the IC50 in experiment [1] (setting [4]) came out at 2.8 nM; in experiment [2] (setting [4]) it was 540 nM; in experiment [3] (setting [4]) it was 13 nM.
